The conditions of data set [1]: human, in vivo.
Experimental: The volunteer fasted for 12 hours prior to the study. […] Controlled amount of boiled pasta was eaten after the 4 h time point. An initial blood sample (400 μl) was collected using a lancet at a fingertip into heparin tubes followed by samples at 1, 2, 3, 4, 5, 6, 7 and 8 hour after ingestion. Plasma was separated and immediately analysed for fatty acid composition.
The AUC (calculates area under the curve for concentration vs. time data) is calculated using linear trapezoidal rule. […] In this experiment, the doses are the same. […] The relative bioavailability of compound 1 and compound 5 is calculated with the same formula:
For data set [2], the system named is A-549 human lung cancer cell line. Description: in vitro cell viability assay (SRB) on A-549. In kind it is cell-based. Here is the method:
(§1) Five consecutive dilutions with a equal volume of DMSO was performed. […] Precipitation occur at high concentration of curcumin. […] Five consecutive dilutions with a equal volume of DMSO was performed. […] The cell viability assay is performed to measure the relative cell viability status of cancer cells upon exposure to test compounds in comparison to a positive control (etoposide) and a negative control (vehicule). Adherent cells growing in 96-well plates are exposed to test compounds for 3 days (72 hours). […] All conditions are tested in triplicate. […] After the incubation time, total protein content is quantified following staining with the anionic dye sulforhodamine B (SRB). The detection of luminescence, emitted by SRB, is completed by a microplate reader. This method of detection is based upon works published by Monks et al., in Journal of the National Cancer Institute vol. 82 no. […] The amount of luminescence is directly proportional to the number of living cells in culture. […] Cells were trypsinized using 0.25% trypsine (w/v)/0.53 mM EDTA solution (Hyclone), counted and plated at densities between 1000 and 3000 cells per well in flat bottom 96-well clear plates (Becton Dickinson) in 100 μl of appropriate culture medium supplemented with fetal bovine serum (Hyclone). […] Absorbance was read at 515 nm using a 96-well plate Multiskan Spectrum luminescence reader (Thermo Electron Corporation). […]

Data set [3] deals with PC-3 human prostate cancer cell line. Description: in vitro cell viability assay (SRB) on PC-3. Type of data set: cell-based. As to the method: as §1
Data set [4] concerns HCT-15 human colon cancer cell line. Description: in vitro cell viability assay (SRB) on HCT-15. In kind it is cell-based. Here is the method: as §1
The subject of data set [5] is human monocyte THP-1 cells. Description: LPS-induced TNF-α release by monocyte cells (ELISA). Type of data set: cell-based. The settings on record: 100 ng/ml of LPS, 4 hours, composition 3 10 μg/ml, curcumin 5 μg/ml. As to the method:
Composition 3 (comprising compounds 1 and 5) at final concentration of 10 μg/ml, curcumin (5 μg/ml) and a 1:1 mixture of composition 3 ([…]) and curcumin (5 μg/ml) in DMSO (1%) was used for the in vitro assay. Composition 3 prepared according to the same procedure as previously described in Example 2)
The in vitro assay allows evaluation of the potential anti-inflammatory effects of compounds on the induced-release of pro-inflammatory mediator by monocyte cells. Typical human monocyte THP-1 cells, involved in inflammatory processes, are used in this assay. Measurement of pro-inflammatory mediator TNF-α is performed by ELISA (manufactured by R&D Systems) with artificial induction of pro-inflammatory agents by LPS (E. Coli 055:B5) during 4 hours. Known anti-inflammatory agent dexametazone was used as positive control.
A general note: ELISA stands for enzyme-linked immunosorbent assay.

Structures are written as SMILES. In brackets after ≈: the same amount, converted by molar mass.

As usually defined, the inhibition is how much of the control response was suppressed.

On to `CC/C=C\C/C=C\C/C=C\C/C=C\C/C=C\CCCCCC(=O)OCC(O)CO` (stereo not drawn) [compound 1], for which the “relative bioavailability of compound 1 compared to compound 5” value in data set [1] is given as 2.20.
On to `COc1cc(/C=C/C(=O)CC(=O)/C=C/c2ccc(O)c(OC)c2)ccc1O` [curcumin], for which the IC50 was approximately 100 µg/mL (≈ 271 µM) in data set [2] (A549, A-549, 72 hours, SRB, concentration of the tested substance or composition, read-out: 50% growth inhibition concentration); approximately 75 µg/mL (≈ 204 µM) in data set [3] (PC-3, 72 hours, SRB, concentration of the tested substance or composition, read-out: 50% growth inhibition concentration); approximately 100 µg/mL (≈ 271 µM) in data set [4] (HCT-15, 72 hours, SRB, concentration of the tested substance or composition, read-out: 50% growth inhibition concentration). Further, in data set [5], the TNF-α measured amounted to 100 µg/mL.
`C[C@@H]1C[C@H]2[C@@H]3CCC4=CC(=O)C=C[C@]4(C)[C@@]3(F)[C@@H](O)C[C@]2(C)[C@@]1(O)C(=O)CO` [dexametazone]: the TNF-α measured in data set [5] was determined as 125 µg/mL.
For `COc1cc([C@@H]2c3cc4c(cc3[C@@H](O[C@@H]3O[C@@H]5CO[C@@H](C)O[C@H]5[C@H](O)[C@H]3O)[C@H]3COC(=O)[C@H]23)OCO4)cc(OC)c1O` [etoposide], the inhibition at 294 µg/mL came out at 100% in data set [2] (A549, A-549, positive control at 294 μg/ml, read-out: growth inhibition); 100% in data set [3] (PC-3, positive control at 294 μg/ml, read-out: growth inhibition); 100% in data set [4] (HCT-15, positive control at 294 μg/ml, read-out: growth inhibition).

These data come from patent US8222295B2, “Compositions comprising polyunsaturated fatty acid monoglycerides or derivatives thereof and uses thereof” (Centre de Recherche sur les Biotechnologies Marines, priority 2007, dated 2012).
